Measured values published in ChEMBL document CHEMBL6074649, “An insight into recent developments in imidazole based heterocyclic compounds as anticancer agents: Synthesis, SARs, and mechanism of actions” (Eur J Med Chem, 2024).
pEC50, pIC50: −log10 of the molar value. ≈ marks a conversion by molar mass, not a printed value.

Key:
[1] = Cytotoxicity against human MCF-10A cells; assay type: toxicity, cell-based
[2] = test system: B16-F10; test: Cytotoxicity against mouse B16-F10 cells; assay type: functional, cell-based
[3] = test system: HeLa; test: Cytotoxicity against human HeLa cells; assay type: functional, cell-based
[4] = Cytotoxicity against mouse L929 cells; assay type: toxicity, cell-based
[5] = Cytotoxicity against mouse EMT6/AR1 cells; assay type: functional, cell-based
[6] = test system: MCF7; test: Cytotoxicity against human MCF7 cells; assay type: functional, cell-based
[7] = test system: A549; test: Cytotoxicity against human A549 cells; assay type: functional, cell-based
[8] = test system: PC-3; test: Anticancer activity against human PC-3 cells at 100 uM relative to control; assay type: functional
[9] = test system: NCI-H1299; test: Anticancer activity against human NCI-H1299 cells at 100 uM relative to control; assay type: functional
[10] = test system: HCT-116; test: Anticancer activity against human HCT-116 cells at 100 uM relative to control; assay type: functional
[11] = test system: SiHa; test: Antiproliferative activity against human SiHa cells; assay type: functional, cell-based
[12] = Antiproliferative activity against human BJ cells; assay type: toxicity, cell-based
[13] = test system: A549; test: Antiproliferative activity against human A549 cells; assay type: functional, cell-based
[14] = test system: HFF; test: Anticancer activity against human HFF cells assessed as reduction in cell viability at 10 ug/ml measured for 24 hrs by MTT assay relative to control; assay type: functional; settings: dose 10 µg/ml
[15] = test system: HCT-116; test: Anticancer activity against human HCT-116 cells assessed as reduction in cell viability at 50 ug/ml measured for 48 hrs by MTT assay relative to control; assay type: functional; settings: dose 50 µg/ml
[16] = test system: MCF7; test: Anticancer activity against human MCF7 cells assessed as reduction in cell viability at 50 ug/ml measured for 48 hrs by MTT assay relative to control; assay type: functional; settings: dose 50 µg/ml
[17] = test system: HCT-116; test: Anticancer activity against human HCT-116 cells assessed as reduction in cell viability at 10 ug/ml measured for 48 hrs by MTT assay relative to control; assay type: functional; settings: dose 10 µg/ml
[18] = test system: MCF7; test: Anticancer activity against human MCF7 cells assessed as reduction in cell viability at 50 ug/ml measured for 24 hrs by MTT assay relative to control; assay type: functional; settings: dose 50 µg/ml
[19] = test system: MCF7; test: Anticancer activity against human MCF7 cells assessed as reduction in cell viability at 10 ug/ml measured for 48 hrs by MTT assay relative to control; assay type: functional; settings: dose 10 µg/ml
[20] = test system: HCT-116; test: Anticancer activity against human HCT-116 cells assessed as reduction in cell viability at 50 ug/ml measured for 24 hrs by MTT assay relative to control; assay type: functional; settings: dose 50 µg/ml
[21] = test system: HCT-116; test: Anticancer activity against human HCT-116 cells assessed as reduction in cell viability at 10 ug/ml measured for 24 hrs by MTT assay relative to control; assay type: functional; settings: dose 10 µg/ml
[22] = test system: MCF7; test: Anticancer activity against human MCF7 cells assessed as reduction in cell viability at 10 ug/ml measured for 24 hrs by MTT assay relative to control; assay type: functional; settings: dose 10 µg/ml
[23] = test system: HFF; test: Anticancer activity against human HFF cells assessed as reduction in cell viability at 50 ug/ml measured for 24 hrs by MTT assay relative to control; assay type: functional; settings: dose 50 µg/ml
[24] = test system: HFF; test: Anticancer activity against human HFF cells assessed as reduction in cell viability at 10 ug/ml measured for 48 hrs by MTT assay relative to control; assay type: functional; settings: dose 10 µg/ml
[25] = test system: HFF; test: Anticancer activity against human HFF cells assessed as reduction in cell viability at 50 ug/ml measured for 48 hrs by MTT assay relative to control; assay type: functional; settings: dose 50 µg/ml
[26] = test system: HT-29; test: Antiproliferative activity against human HT-29 cells assessed as inhibition of cell growth at 20 uM measured for 48 hrs by MTT assay relative to control; assay type: functional
[27] = test system: HCT-15; test: Antiproliferative activity against human HCT-15 cells assessed as inhibition of cell growth at 20 uM measured for 48 hrs by MTT assay relative to control; assay type: functional
[28] = test system: A549; test: Antiproliferative activity against human A549 cells assessed as inhibition of cell growth at 20 uM measured for 48 hrs by MTT assay relative to control; assay type: functional
[29] = test system: HeLa; test: Antiproliferative activity against human HeLa cells assessed as inhibition of cell growth at 20 uM measured for 48 hrs by MTT assay relative to control; assay type: functional
[30] = test system: MDA-MB-231; test: Antiproliferative activity against human MDA-MB-231 cells assessed as inhibition of cell growth at 20 uM measured for 48 hrs by MTT assay relative to control; assay type: functional
[31] = test system: MDA-MB-231; test: Antiproliferative activity against human MDA-MB-231 cells assessed as reduction in cell viability after 48 hrs by SRB assay; assay type: functional, cell-based; settings: MDA-MB-231, 48 h
[32] = Antiproliferative activity against human IGR-39 cells assessed as reduction in cell viability after 48 hrs by SRB assay; assay type: functional, cell-based; settings: IGR-39, 48 h
[33] = test system: MG-63; test: Antiproliferative activity against human MG-63 cells; assay type: functional, cell-based
[34] = test system: A549; test: Antiproliferative activity against human A549 cells assessed as reduction in cell growth; assay type: functional, cell-based
[35] = Antiproliferative activity against HEK293 cells; assay type: toxicity, cell-based; settings: human
[36] = test system: MCF7; test: Antiproliferative activity against human MCF7 cells; assay type: functional, cell-based
[37] = test system: PANC-1; test: Antiproliferative activity against human PANC-1 cells by MTT assay; assay type: functional, cell-based
[38] = test system: HCT-116; test: Cytotoxicity against human HCT-116 cells assessed as reduction in cell growth incubated for 24 hrs by MTT assay; assay type: functional, cell-based; settings: HCT-116, 24 h
[39] = test system: HeLa; test: Cytotoxicity against human HeLa cells assessed as reduction in cell growth incubated for 24 hrs by MTT assay; assay type: functional, cell-based
[40] = test system: PC-3; test: Anticancer activity against human PC-3 cells; assay type: functional, cell-based
[41] = test system: Caco-2; test: Cytotoxicity against human Caco-2 cells assessed as reduction in cell growth incubated for 24 hrs by MTT assay; assay type: functional, cell-based; settings: Caco-2, 24 h
[42] = test system: HT-29; test: Antiproliferative activity against human HT-29 cells assessed as inhibition of cell growth at 0.1 uM measured for 48 hrs by MTT assay relative to control; assay type: functional; settings: HT-29, 48 h, values are per cent of control
[43] = test system: HeLa; test: Antiproliferative activity against human HeLa cells assessed as inhibition of cell growth at 0.1 uM measured for 48 hrs by MTT assay relative to control; assay type: functional; settings: values are per cent of control
[44] = test system: HT-29; test: Antiproliferative activity against human HT-29 cells assessed as reduction in cell growth by MTT assay; assay type: functional, cell-based
[45] = test system: HCT-15; test: Antiproliferative activity against human HCT-15 cells assessed as inhibition of cell growth at 0.1 uM measured for 48 hrs by MTT assay relative to control; assay type: functional
[46] = test system: DU-145; test: Anticancer activity against human DU-145 cells; assay type: functional, cell-based
[47] = test system: HepG2; test: Cytotoxicity against human HepG2 cells assessed as reduction in cell growth incubated for 24 hrs by SRB assay; assay type: functional, cell-based; settings: HepG2, 24 h
[48] = test system: HepG2; test: Anticancer activity against human HepG2 cells; assay type: functional, cell-based
[49] = test system: MDA-MB-231; test: Antiproliferative activity against human MDA-MB-231 cells assessed as inhibition of cell growth at 0.1 uM measured for 48 hrs by MTT assay relative to control; assay type: functional
[50] = test system: HepG2; test: Antiproliferative activity against human HepG2 cells; assay type: functional, cell-based
[51] = test system: A549; test: Antiproliferative activity against human A549 cells assessed as inhibition of cell growth at 0.1 uM measured for 48 hrs by MTT assay relative to control; assay type: functional
[52] = Anticancer activity against human MCF-10A cells assessed as reduction in cell viability measured for 24 hrs by MTT assay; assay type: toxicity, cell-based
[53] = test system: MDA-MB-231; test: Anticancer activity against human MDA-MB-231 cells assessed as reduction in cell viability measured for 24 hrs by MTT assay; assay type: functional, cell-based; settings: MDA-MB-231, 24 h

COc1cc(C(=O)c2[nH]c(N)nc2-c2cccs2)cc(OC)c1OC
pIC50 [1]: 5.72 | pIC50 [2]: 6.38 | pIC50 [3]: 7.44 | pIC50 [4]: 5.78 | pIC50 [5]: 5.61 | pIC50 [6]: 6.92 | pIC50 [7]: 6.95

O=C(CS(=O)(=O)NS(=O)(=O)CC(=O)Nc1nc(-c2ccc(Cl)cc2)c[nH]1)Nc1nc(-c2ccc(Cl)cc2)c[nH]1
inhibition at 100 µM [8]: 32.1% | inhibition at 100 µM [9]: 21.4% | inhibition at 100 µM [10]: 41.4%

CN1CCN(c2ccc(-c3nc(-c4ccc(N5C(=O)c6cccc7c(N8CCN(C)CC8)ccc(c67)C5=O)cc4)[nH]c3-c3ccc(N4CCN(C)CC4)cc3)cc2)CC1
pIC50 [11]: 5.27 | pIC50 [12]: 4.88 | pIC50 [13]: 5.19

Nc1nc(-c2ccccc2)cn1/N=C/c1cnc2ccccc2n1
Activity [14]: 7.1% | Activity [15]: 66.6% | Activity [16]: 83.3% | Activity [17]: 50% | Activity [18]: 64.7% | Activity [19]: 47.3% | Activity [20]: 70% | Activity [21]: 46.6% | Activity [22]: 41.1% | Activity [23]: 35.7% | Activity [24]: 33.3% | Activity [25]: 37.5%

CCCCCCCCCCCCn1cnc(C(=O)OCC)c1N
inhibition at 20 µM [26]: 82% | inhibition at 20 µM [27]: 52% | inhibition at 20 µM [28]: 54% | inhibition at 20 µM [29]: 85% | inhibition at 20 µM [30]: 69%

CCn1c(-c2ccc(F)cc2)cn(-c2cccc(S(N)(=O)=O)c2)c1=O
pEC50 [31]: 4.69 | pEC50 [32]: 4.56

COc1ccc2[nH]c(=O)c(-c3nc(-c4ccccc4)c(-c4ccccc4)[nH]3)cc2c1
pIC50 [33]: 4.21 | pIC50 [34]: 4.41 | pIC50 [35]: 4.06 | pIC50 [36]: 4.30

COc1cccc2c1C(=O)c1c(O)c3c(c(O)c1C2=O)C[C@@](O)(C(=O)CO)C[C@@H]3O[C@H]1C[C@H](N)[C@H](O)[C@H](C)O1 [DOXORUBICIN]
pIC50 [37]: 5.85 | pIC50 [38]: 5.25 | pIC50 [39]: 5.90 | pIC50 [40]: 5.64 | pIC50 [41]: 5.29 | viability, % of control at 0.1 µM [42]: 93% | viability, % of control at 0.1 µM [43]: 90% | pIC50 [44]: 6.00 | inhibition at 0.1 µM [45]: 94% | pIC50 [46]: 5.34 | IC50 [47]: 0.42 mg/L (≈ 0.773 µM) | pIC50 [48]: 6.21 | inhibition at 0.1 µM [49]: 83% | pIC50 [50]: 6.07 | inhibition at 0.1 µM [51]: 89%

CCOC(=O)c1ccccc1-n1c(-c2c(O)[nH]c(=O)[nH]c2=O)cnc1C
IC50 at 24 h [52]: > 100 µM | pIC50 [53]: 4.27
